# Earlier results, collected in patent US9272011B2, “Pharmaceutical composition for treating urinary incontinence and enuresis” (LABORATEC, S.L., priority 2012, dated 2016).
# System: enuresis
# Conditions: enuresis therapy, literature studies
structure (smiles),measurement,value
CN(C)CCCN1c2ccccc2CCc2ccccc21 [Imipramine],response rate,approximately 50%
